Laboratory results reported in patent US8871280B1, “Compositions and methods for treating fungal activity in plants or soil” (The United States of America, as represented by the …, priority 2011, dated 2014).

Key:
Rhizoctonia solani [1] = assay: Fungicidal vs fungistatic potential (regrowth of mycelial plugs on fresh PDA, 7 days); assay type: cell-based, Rhizoctonia solani AG-4, isolate Rs 23A; details: in vitro, fumigation and contact, all concentrations tested
Experimental: The fungicidal and fungistatic potential of the PEs were determined by the method described by Garber and Houstan (Garber R. H., and B. R. Houston, Phytopathology, 49: 449-450 (1959)). In brief, three 5 mm diameter plugs were taken from the peripheral mycelial growth from each plate and placed in a fresh PDA plate. Following incubation at room temperature for 7 days, observations were recorded for new mycelial growth (fungistatic) or no mycelial growth (fungicidal). As control, peripheral mycelial plugs from soybean oil amended PDA plates were checked for fresh mycelial growth in fresh PDA plates.

Rhizoctonia solani [2] = assay: Filter disk fumigation method, mycelial growth inhibition on PDA; assay type: cell-based, Rhizoctonia solani AG-4, isolate Rs 23A; details: for Fumig1 % inhibition: fumigation experiment 1; for Fumig2 % inhibition: fumigation experiment 2
Experimental: (§1) Fungal isolate and preparation of inoculum: Rhizoctonia solani AG-4, isolate Rs 23A is a highly virulent pathogenic isolate which infects many vegetables, ornamentals and turfgrasses (Lewis, J. A., and G. C. Papavizas, Soil Biology and Biochemistry, 9:195-201 (1987)). The fungus was grown in potato dextrose agar (PDA) plates and fungal plugs from the freshly growing mycelium were mixed with moist sterilized cracked wheat in a 2 L flask for 15 days in dark at 22° C. (Lakshman, D. K., et al., Proceedings of the National Academy of Science, USA, 95: 6425-6429 (1998)). The infested wheat was air dried in a sterile hood for 3 days, blended in a homogenizer and sieved through a mesh and stored at 2° C. before soil inoculation. A dose response of the inocula was carried out by thoroughly mixing using 0.25, 0.5, 0.75, 1.0, 1.25 and 1.50 g inoculums per Kg dry weight potting soil plus sterile water to maintain 25-30% moisture and incubating at room temperature for two weeks before sowing cucumber (cv muncher) seeds with the infested soil. The percent germination and post-emergence damping off of cucumber seedlings were recorded. The lowest inoculums dose that induced 100% postemergence damping off was estimated to be 1 to 1.25 g/Kg soil for inocula prepared over the span of the experiments. For soil fumigation with plant extracts (PEs), each time the minimum inoculum dose giving rise to 100% damping off was used.
In the second protocol, the chemical was kept not in direct contact with the fungus and we hypothesized that the plant extract will most likely influence the growth of the pathogen by fumigation action. In this approach, three sterile 15 mm filter paper (Whatman International Ltd, Maidstone, UK) disks were placed on the edge of each of three plates on the PDA. Each disk was impregnated in the center with various amounts (5-50 ul/disk) of the test solution/suspension. For negative control, only soybean oil was placed in the filter disk. […] The average radial growth was calculated and the experiment was repeated one more time. Percent growth inhibition was calculated as reported for poison bed assay.

Rhizoctonia solani [3] = assay: Greenhouse suppression of damping off of cucumber seedlings in R. solani infested soil amended with plant extract; assay type: in vivo, Rhizoctonia solani AG-4, isolate Rs 23A; details: for % Disease suppression (+ PE + R. solani): cucumber damping off, soil amendment at 0.3% (v/w), four weeks after sowing
Rhizoctonia solani [4] = assay: Poison food technique (contact action), mycelial growth inhibition in PDA; assay type: cell-based, Rhizoctonia solani AG-4, isolate Rs 23A; details: for PoisonB1 % inhibition: poison bed experiment 1; for PoisonB2 % inhibition: poison bed experiment 2
Experimental: as §1
In vitro bioassays: Two in vitro bioassay methods were used to investigate the mycelial growth inhibitory potentials of PEs. In the poison food technique, test chemical/plant extract was mixed at concentrations of 15, 30, 45, 60, 75, and 150 μl per 20 ml autoclaved PDA at 50° C., poured on three sterile disposable plastic plates (100×15 mm, Fisherbrand) at 20 ml/plate and cooled to room temperature to solidify (Dhingra, O.D., and J. B. Sinclair, 1995, Basic Plant Pathology Methods, 2nd Edition, Lewis Publishers, Boca Raton and London). […] Each plate was seeded in the center with a 5 mm diameter agar disk of the freshly grown Rhizoctonia pathogen, mycelial side facing the medium, and sealed with stretched Parafilm® M (Fisher Scientific). The plates were incubated in the dark at room temperature and when the pathogen reached to the edge of the plates in the control treatment (soybean oil), radial measurement of fungal growth in plates treated with PEs were recorded by taking three measurements from each plate. The experiment was repeated one more time. The percent mycelial growth inhibition (MGI) due to PE was calculated using the following formula: […] where dc=Avg. radial growth in mm of pathogen in control plate; dt=avg. radial growth in mm of pathogen in treated plate.

cucumber seeds = assay: Greenhouse assay of seed germination and phytotoxicity, soil treated with plant extract alone; details: cucumber, in vivo, 0.3 % of PE in soil (3000 ppm)
Experimental: Soil treatment: For each treatment, 300 g of dry greenhouse soli (Pro-mix, Premier Horticulture LTD, Red Hill, Pa.) was thoroughly mixed with Rhizoctonia inoculum and incubated for 15 days as described above. […] The infested soil treated with only the carrier solution served as an untreated control. Following the treatment, the soil was thoroughly stirred to mix the contents and incubated in a double polythene bag closed tightly in the dark at room temperature for four days for fumigation to occur. Following the incubation, the bag was opened to allow as much PE to dissipate as possible. This was done by sprinkling the surface soil with sterile water every other day, and stirring the soil once every day for seven days. For assay of effect on seed germination and phytotoxicity of the plant extracts, soil was treated with plant extract formulations alone.
Greenhouse studies: Treated soil from each treatment was distributed to 4-inch plastic pots into which 12 seeds of cucumbers (95-100% germination) were sown and lightly watered to keep soil moist. The treatments were color coded and pots were randomized across treatment. All plants were kept in a greenhouse between 20° C. (night) to 26° C. (day) with 14 h of light. There were three pots per treatment in each experiment, and the experiment was repeated three times. As positive control, a broad spectrum popular soil fungicide Banrot® 40 WP (The Scotts Company, Ohio) was used following manufacturer's recommendation to control the disease. Total number of seedlings without any sign of damping off in each pot was recorded and percentage of disease suppression were calculated four weeks after sowing cucumber seeds.

C=CCN=C=S [Allyisothiocynate]
fungicidal: Fungicidal vs fungistatic nature at all concentrations tested (Rhizoctonia solani [1])
88.92%: % Disease suppression (+ PE + R. solani) (Rhizoctonia solani [3])
potent inhibitors: Inhibition of R. solani growth by fumigation action, in words (Rhizoctonia solani [2]; in vitro, filter disk) | Inhibition of R. solani growth by contact (poison bed assay), in words (Rhizoctonia solani [4]; in vitro, PDA)

C=CCN=C=S [Allylisothiocyanate]
100%: Fumig1 % inhibition (Rhizoctonia solani [2]; amount oil 15 μL/20 mL plate) | Fumig2 % inhibition (Rhizoctonia solani [2]; amount oil 15 μL/20 mL plate) | Fumig1 % inhibition (Rhizoctonia solani [2]; amount oil 30 μL/20 mL plate) | Fumig2 % inhibition (Rhizoctonia solani [2]; amount oil 30 μL/20 mL plate) | Fumig1 % inhibition (Rhizoctonia solani [2]; amount oil 45 μL/20 mL plate) | Fumig2 % inhibition (Rhizoctonia solani [2]; amount oil 45 μL/20 mL plate) | Fumig1 % inhibition (Rhizoctonia solani [2]; amount oil 60 μL/20 mL plate) | Fumig2 % inhibition (Rhizoctonia solani [2]; amount oil 60 μL/20 mL plate) | Fumig1 % inhibition (Rhizoctonia solani [2]; amount oil 75 μL/20 mL plate) | Fumig2 % inhibition (Rhizoctonia solani [2]; amount oil 75 μL/20 mL plate) | Fumig1 % inhibition (Rhizoctonia solani [2]; amount oil 150 μL/20 mL plate) | Fumig2 % inhibition (Rhizoctonia solani [2]; amount oil 150 μL/20 mL plate) | PoisonB1 % inhibition (Rhizoctonia solani [4]; amount oil 15 μL/20 mL plate) | PoisonB2 % inhibition (Rhizoctonia solani [4]; amount oil 15 μL/20 mL plate) | PoisonB1 % inhibition (Rhizoctonia solani [4]; amount oil 30 μL/20 mL plate) | PoisonB2 % inhibition (Rhizoctonia solani [4]; amount oil 30 μL/20 mL plate) | PoisonB1 % inhibition (Rhizoctonia solani [4]; amount oil 45 μL/20 mL plate) | PoisonB2 % inhibition (Rhizoctonia solani [4]; amount oil 45 μL/20 mL plate) | PoisonB1 % inhibition (Rhizoctonia solani [4]; amount oil 60 μL/20 mL plate) | PoisonB2 % inhibition (Rhizoctonia solani [4]; amount oil 60 μL/20 mL plate) | PoisonB1 % inhibition (Rhizoctonia solani [4]; amount oil 75 μL/20 mL plate) | PoisonB2 % inhibition (Rhizoctonia solani [4]; amount oil 75 μL/20 mL plate) | PoisonB1 % inhibition (Rhizoctonia solani [4]; amount oil 150 μL/20 mL plate) | PoisonB2 % inhibition (Rhizoctonia solani [4]; amount oil 150 μL/20 mL plate)

C=CCc1ccc(O)c(OC)c1 [Eugenol]
44.42%: % Disease suppression (+ PE + R. solani) (Rhizoctonia solani [3])
5.33: Avg. seed Germination (+ PE + R. solani) (Rhizoctonia solani [3]; cucumber, 12 seeds sown per pot, infested soil amended with 0.3% PE)
10.00: Avg. seed germination (+ PE only) (cucumber seeds)
